# Results: ChEMBL document CHEMBL3045690, “Ligand-based drug design studies using predictive pharmacophore model generation on 4H-1,2,4-triazoles as AT1 receptor antagonists” (Med Chem Res, 2012)
# Biological target: T1, Type-1 angiotensin II receptor (Oryctolagus cuniculus, UniProt P34976)
# T1 sequence (P34976 whole entry): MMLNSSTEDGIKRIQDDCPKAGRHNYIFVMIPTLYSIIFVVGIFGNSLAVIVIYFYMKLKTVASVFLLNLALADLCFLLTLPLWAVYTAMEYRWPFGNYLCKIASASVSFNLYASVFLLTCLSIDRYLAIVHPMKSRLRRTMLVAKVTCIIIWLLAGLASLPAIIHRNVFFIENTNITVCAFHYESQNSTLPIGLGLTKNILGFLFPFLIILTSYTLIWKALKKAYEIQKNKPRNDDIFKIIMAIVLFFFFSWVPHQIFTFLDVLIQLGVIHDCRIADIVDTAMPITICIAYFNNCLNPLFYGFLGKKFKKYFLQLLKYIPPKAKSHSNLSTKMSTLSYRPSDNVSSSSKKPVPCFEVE
# Experiment: Antagonist activity at AT1 receptor in Oryctolagus cuniculus (rabbit) aorta
row,IC50,Compound
1,0.094 µM,CCCCc1nnc(SCc2cccc(OC)c2)n1Cc1ccc(NC(=O)c2ccccc2-c2nnn[nH]2)cc1
2,0.0014 µM,CCCCc1nnc(SCc2ccccc2-c2nnn[nH]2)n1Cc1ccc(NC(=O)c2ccccc2-c2nnn[nH]2)cc1
3,0.035 µM,CCCCc1nnc(SCCc2ccccc2)n1Cc1ccc(NC(=O)c2ccccc2-c2nnn[nH]2)cc1
4,0.0071 µM,CCCCc1nnc(SCc2ccccc2)n1Cc1ccc(NC(=O)c2ccccc2-c2nnn[nH]2)cc1
5,0.13 µM,CCCCc1nnc(SCc2ccccc2[N+](=O)[O-])n1Cc1ccc(NC(=O)c2ccccc2-c2nnn[nH]2)cc1
6,0.094 µM,CCCCCc1nnc(SCc2ccc(Cl)cc2)n1Cc1ccc(NC(=O)c2ccccc2-c2nnn[nH]2)cc1
7,0.11 µM,CCCCc1nnc(SCc2ccccc2Cl)n1Cc1ccc(NC(=O)c2ccccc2-c2nnn[nH]2)cc1
8,0.09 µM,CCCCc1nnc(SCc2ccccc2C(=O)OC)n1Cc1ccc(NC(=O)c2ccccc2-c2nnn[nH]2)cc1
9,0.017 µM,CCCCc1nnc(SCc2ccccc2C)n1Cc1ccc(NC(=O)c2ccccc2-c2nnn[nH]2)cc1
10,0.036 µM,CCCCc1nnc(SCc2ccccc2CO)n1Cc1ccc(NC(=O)c2ccccc2-c2nnn[nH]2)cc1
11,0.0015 µM,CCCCc1nnc(SCc2ccccc2C(=O)O)n1Cc1ccc(NC(=O)c2ccccc2-c2nnn[nH]2)cc1
12,0.1 µM,CCCCc1nnc(Sc2ccccc2)n1Cc1ccc(NC(=O)c2ccccc2-c2nnn[nH]2)cc1

# Second part, the molecule before the results:
row,Compound,IC50
1,CCCCc1nnc(SCc2ccc(C(=O)O)cc2)n1Cc1ccc(NC(=O)c2ccccc2-c2nnn[nH]2)cc1,0.024 µM
2,CCCCc1nnc(SCC(C)C)n1Cc1ccc(NC(=O)c2ccccc2-c2nnn[nH]2)cc1,0.072 µM
3,CCCCc1nnc([S+]([O-])Cc2ccccc2C(=O)O)n1Cc1ccc(NC(=O)c2ccccc2-c2nnn[nH]2)cc1 (stereo unspecified),0.01 µM
4,CCCCc1nnc(SCc2ccc([N+](=O)[O-])cc2)n1Cc1ccc(NC(=O)c2ccccc2-c2nnn[nH]2)cc1,0.0066 µM
5,CCCCc1nnc(C(=O)NCc2ccccc2)n1Cc1ccc(NC(=O)c2ccccc2-c2nnn[nH]2)cc1,0.057 µM
6,CCCCc1nnc(C(=O)N(C)c2ccccc2)n1Cc1ccc(NC(=O)c2ccccc2-c2nnn[nH]2)cc1,0.35 µM
7,CCCCc1nnc(OCCc2ccccc2)n1Cc1ccc(NC(=O)c2ccccc2-c2nnn[nH]2)cc1,0.063 µM
8,CCCCc1nnc(S)n1Cc1ccc(NC(=O)c2ccccc2C(=O)O)cc1,0.86 µM
9,CCCCc1nnc(SCC2CCCCC2)n1Cc1ccc(NC(=O)c2ccccc2-c2nnn[nH]2)cc1,0.036 µM
10,CCCCc1nnc(S(C)(=O)=O)n1Cc1ccc(NC(=O)c2ccccc2-c2nnn[nH]2)cc1,0.4 µM
11,CCCCc1nnc(NCc2ccc(Cl)cc2)n1Cc1ccc(NC(=O)c2ccccc2-c2nnn[nH]2)cc1,0.14 µM
12,CCCCc1nnc(SC)n1Cc1ccc(NC(=O)c2ccccc2-c2nnn[nH]2)cc1,0.31 µM
13,CCCCc1nnc([S+]([O-])Cc2ccc(OC)cc2)n1Cc1ccc(NC(=O)c2ccccc2-c2nn[nH]n2)cc1 (stereo unspecified),0.05 µM
14,CCCSc1nnc(Cc2ccccc2)n1Cc1ccc(NC(=O)c2ccccc2C(=O)O)cc1,0.32 µM
15,CCCc1nnc(SCc2ccc(Cl)cc2)n1Cc1ccc(NC(=O)c2ccccc2-c2nnn[nH]2)cc1,0.098 µM
16,CCCCc1nnc(OCc2ccccc2)n1Cc1ccc(NC(=O)c2ccccc2-c2nnn[nH]2)cc1,0.37 µM
17,CCCCc1nnc(SC(C)(C)C)n1Cc1ccc(NC(=O)c2ccccc2C(=O)O)cc1,0.89 µM
18,CCCCc1nnc([S+]([O-])Cc2ccc([N+](=O)[O-])cc2)n1Cc1ccc(NC(=O)c2ccccc2-c2nnn[nH]2)cc1 (stereo unspecified),0.0089 µM
19,CCCCc1nnc(C(=O)N(C)Cc2ccccc2)n1Cc1ccc(NC(=O)c2ccccc2-c2nnn[nH]2)cc1,0.089 µM
20,CCCCc1nnc(NCc2ccccc2)n1Cc1ccc(NC(=O)c2ccccc2-c2nnn[nH]2)cc1,0.028 µM
21,CCCCc1nnc(SCc2ccc(C(=O)OC)cc2)n1Cc1ccc(NC(=O)c2ccccc2-c2nnn[nH]2)cc1,0.12 µM
22,CCCCc1nnc([S+]([O-])Cc2ccc(Cl)cc2)n1Cc1ccc(NC(=O)c2ccccc2-c2nn[nH]n2)cc1 (stereo unspecified),0.011 µM
23,CCCCc1nnc(S(=O)(=O)Cc2ccc(Cl)cc2)n1Cc1ccc(NC(=O)c2ccccc2-c2nnn[nH]2)cc1,0.048 µM
24,CCCCc1nnc(NCc2ccc(OC)cc2)n1Cc1ccc(NC(=O)c2ccccc2-c2nnn[nH]2)cc1,0.78 µM
